Publication PMC4519322 (PLoS Pathogens, 2015)
Read-outs that look alike come from different tables or passages of the source.

Tests used:
A/WSN/1933 (H1N1) virus = assay: microbe, parasite or virus in culture; type: cell-based, influenza A virus; conditions: for IC50 / IC90: Influenza A virus
in vitro = conditions: dog, CC50 (50% cytotoxicity concentration), MDCK cells, WST-1 assay
[1] = in vivo; cited from earlier work
[2] = system: recombinant wild-type WSN (rWSN); assay: microbe, parasite or virus in culture; type: cell-based; conditions: Influenza A virus, H1N1 / WSN, read-out: IC50 (μM) WT rWSM (H1N1)
A/Udorn/307/1972 (H3N2) = assay: microbe, parasite or virus in culture; type: cell-based; conditions: Influenza A virus, H3N2, MDCK
[3] = system: A/Ck/yamaguchi/7/2004 (H5N1); assay: microbe, parasite or virus in culture; type: cell-based; conditions: Influenza A virus, H5N1, MDCK
A/Anhui/1/2013(H7N9) = assay: microbe, parasite or virus in culture; type: cell-based; conditions: Influenza A virus, H7N9, MDCK
[4] = system: A/Massachusetts/3740/1965 (H6N2); assay: microbe, parasite or virus in culture; type: cell-based; conditions: Influenza A virus, H6N2, MDCK
[5] = system: A/Ontario/6118/1968 (H8N4); assay: microbe, parasite or virus in culture; type: cell-based; conditions: Influenza A virus, H8N4, MDCK
A/Germany/N/1949 (H10N7) = assay: microbe, parasite or virus in culture; type: cell-based; conditions: Influenza A virus, MDCK
A/England/1/1956 (H11N6) = assay: microbe, parasite or virus in culture; type: cell-based; conditions: Influenza A virus, MDCK
[6] = system: A/Alberta/60/1976 (H12N5); assay: microbe, parasite or virus in culture; type: cell-based; conditions: Influenza A virus, MDCK
[7] = system: A/Astrakhan/263/1982 (H14N15); assay: microbe, parasite or virus in culture; type: cell-based; conditions: Influenza A virus, MDCK
A/Tex/131 (H3N2) = assay: microbe, parasite or virus in culture; type: cell-based; conditions: Influenza A virus, H3N2, MDCK
[8] = system: A/California/7/2009 virus (H1N1); assay: microbe, parasite or virus in culture; type: cell-based; conditions: Influenza A virus, H1N1, MDCK
[9] = system: influenza A/WSN/1933 (H1N1) virus; set-up: species or system Balb/c mice; conditions: mouse, in vivo
vRNP activity = vRNP activity (Influenza A virus, UniProt P15682); type: cell-based, influenza A/WSN/1933 (H1N1)
vRNP activity, sequence (P15682 whole entry, looked up): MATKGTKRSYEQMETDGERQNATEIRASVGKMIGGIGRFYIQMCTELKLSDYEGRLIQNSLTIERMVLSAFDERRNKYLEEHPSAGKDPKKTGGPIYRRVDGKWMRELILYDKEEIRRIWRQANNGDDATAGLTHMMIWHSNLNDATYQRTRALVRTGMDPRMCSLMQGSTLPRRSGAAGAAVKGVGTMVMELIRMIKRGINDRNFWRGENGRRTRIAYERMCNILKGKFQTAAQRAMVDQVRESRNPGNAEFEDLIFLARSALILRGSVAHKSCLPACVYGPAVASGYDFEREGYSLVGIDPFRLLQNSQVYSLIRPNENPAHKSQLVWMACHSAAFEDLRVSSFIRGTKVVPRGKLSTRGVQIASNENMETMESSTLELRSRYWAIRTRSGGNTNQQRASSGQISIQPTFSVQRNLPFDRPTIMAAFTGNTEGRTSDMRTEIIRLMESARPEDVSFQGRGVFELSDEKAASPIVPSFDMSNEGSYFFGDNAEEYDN

[10] = system: vRNA encoding the PB2 subunit; type: cell-based, A/WSN/1933 (H1N1)
viral protein expression = type: cell-based
NP = NP (Influenza A virus, UniProt P15682); type: cell-based, A/WSN/1933 (H1N1)
NP, sequence (P15682 whole entry, looked up): as above

NP-Flag = NP-Flag (Influenza A virus, UniProt P15682); type: binding
NP-Flag, sequence (P15682 whole entry, looked up): as above

NP-RNA interaction = NP-RNA interaction (Influenza A virus, UniProt P15682); type: biochemical
NP-RNA interaction, sequence (P15682 whole entry, looked up): as above

NP-NP interaction = NP-NP interaction (Influenza A virus, UniProt P15682); type: biochemical
NP-NP interaction, sequence (P15682 whole entry, looked up): as above

[11] = biological target: vRNA-induced NP oligomerization (Influenza A virus, UniProt P15682); type: biochemical
vRNA-induced NP oligomerization, sequence (P15682 whole entry, looked up): as above

[12] = system: nuclear export of NP-mRFP-Flag; assay: in vitro nuclear export assay, digitonin-permeabilized HeLa cells; type: cell-based; conditions: with HeLa cell lysate, 42% with lysate alone
Procedure: HeLa cells were attached to glass cover slips at 37°C for 24 h and then transiently transfected with NP-mRFP-Flag/pCAGGS. After 48 h, cells were washed twice with cold transport buffer (20 mM HEPES (pH 7.4), 110 mM potassium acetate, 2 mM magnesium acetate, 1 mM EGTA (pH 7.4), 2 mM DTT, 1 μg/mL aprotinin, 1 μg/mL leupeptin, and 1 μg/mL pepstatin) and permeabilized with digitonin (50 μg/mL; Sigma) in transport buffer for 5 min on ice. The cells were then washed with cold transport buffer and incubated with apyrase (10 U/mL; Sigma) for 5 min on ice. After washing twice with cold transport buffer, the cells were incubated in cold transport buffer for 10 min on ice before addition of a the reaction mixture (40 μg HeLa cell lysate, 10 mg/mL bovine serum albumin (BSA), 10 mM ATP, 5 mM creatine phosphate, 0.64 U creatine kinase) containing (or not) the test compounds. The mixture was the incubated at 30°C for 1 h. After washing three times with cold transport buffer, mRFP fluorescence was observed under a confocal laser scanning microscope (FV 1000; Olympus). The fluorescence intensity in the nuclei was analyzed with MetaMorph software (Molecular Devices Inc., Downingtown, PA). The fluorescence intensity of NP-mRFP-Flag was quantified in >100 nuclei in each of three independent experiments.

CRM1 binding to NP = CRM1 binding to NP (Influenza A virus, UniProt P15682); type: biochemical
CRM1 binding to NP, sequence (P15682 whole entry, looked up): as above

[13] = system: Influenza A/WSN/1933 (H1N1) virus; type: cell-based
[14] = system: virus life cycle in MDCK cells; type: cell-based
[15] = mouse plasma
in vivo = conditions: Balb/c, mouse, 10 mg/kg
[16] = MDCK, read-out: IC50 (SAR analysis of RK424)

SMILES: NC(=O)c1cc(-c2ccc(-c3ccccc3)cc2)nc2ccccc12 [Analog #1]
- antiviral effect relative to RK424 (SAR, in words) (A/WSN/1933 (H1N1) virus): partial reduction in the antiviral effect
- IC50 (A/WSN/1933 (H1N1) virus; [16]): 10100 ± 2070 nM
- CC50 (in vitro): > 10000 nM

SMILES: O=C(O)c1cc(N2CCN(c3ccccc3)CC2)nc2ccccc12 [Analog #2]
- antiviral effect relative to RK424 (SAR, in words) (A/WSN/1933 (H1N1) virus): complete loss of antiviral activity
- IC50 (A/WSN/1933 (H1N1) virus; [16]): > 30000 nM
- CC50 (in vitro): > 10000 nM

SMILES: O=C(O)c1ccnc(-c2ccc(-c3ccccc3)cc2)c1 [Analog #3]
- antiviral effect relative to RK424 (SAR, in words) (A/WSN/1933 (H1N1) virus): complete loss of antiviral activity
- IC50 (A/WSN/1933 (H1N1) virus; [16]): > 30000 nM
- CC50 (in vitro): > 10000 nM

SMILES: O=C(O)c1cc(-c2ccc(Oc3ccccc3)cc2)nc2ccccc12 [Analog #4]
- antiviral effect relative to RK424 (SAR, in words) (A/WSN/1933 (H1N1) virus): antiviral effect comparable with that of RK424
- IC50 (A/WSN/1933 (H1N1) virus; [16]): 430 ± 150 nM
- CC50 (in vitro): > 10000 nM

SMILES: NC(=O)c1nc(F)c[nH]c1=O [Analog T-705, favipiravir]
- recovery from morbidity, of that of the negative control group [1]: 20%
- viral titers in the lung [1]: 3.50 log10 PFU/mL

SMILES: Cc1onc(-c2ccccc2)c1C(=O)N1CCN(c2ccc([N+](=O)[O-])cc2Cl)CC1 [Nucleozin, nucleozin, reference compound]
- IC50 [2]: 0.2 ± 0.03 µM

SMILES: O=C(O)c1cc(-c2ccc(-c3ccccc3)cc2)nc2ccccc12 [RK424]
- plaque formation (number and size) (A/WSN/1933 (H1N1) virus): reduction in the number, but not the size, of viral plaques
- IC50 (A/WSN/1933 (H1N1) virus; MDCK): 480 ± 190 nM
- IC90 (A/WSN/1933 (H1N1) virus; MDCK): 1190 ± 360 nM
- IC50 (A/WSN/1933 (H1N1) virus; read-out: IC50 expressed as ng/mL): 163 ng/mL
- IC90 (A/WSN/1933 (H1N1) virus; read-out: IC90 expressed as ng/mL): 390 ng/mL
- IC50 (A/Udorn/307/1972 (H3N2)): 490 ± 190 nM
- IC90 (A/Udorn/307/1972 (H3N2)): 1230 ± 240 nM
- IC50 [3]: 570 ± 40 nM
- IC90 [3]: 930 ± 20 nM
- IC50 (A/Anhui/1/2013(H7N9)): 600 ± 120 nM
- IC90 (A/Anhui/1/2013(H7N9)): 1140 ± 260 nM
- IC50 [4]: 590 ± 90 nM
- IC90 [4]: 1590 ± 120 nM
- IC50 [5]: 490 ± 40 nM
- IC90 [5]: 910 ± 20 nM
- IC50 (A/Germany/N/1949 (H10N7)): 580 ± 140 nM
- IC90 (A/Germany/N/1949 (H10N7)): 1090 ± 80 nM
- IC50 (A/England/1/1956 (H11N6)): 570 ± 160 nM
- IC90 (A/England/1/1956 (H11N6)): 940 ± 20 nM
- IC50 [6]: 620 ± 230 nM
- IC90 [6]: 1510 ± 870 nM
- IC50 [7]: 420 ± 60 nM
- IC90 [7]: 950 ± 10 nM
- IC50 (A/Tex/131 (H3N2)): 590 ± 130 nM
- IC90 (A/Tex/131 (H3N2)): 980 ± 20 nM
- IC50 [8]: 400 ± 70 nM
- IC90 [8]: 880 ± 20 nM
- IC50 [2]: 0.38 ± 0.04 µM
- body weight change (in words) [9]: lost less weight
- reduction in the virus titer in the lung compared with controls [9]: ~ 2 log
- virus titer in the lungs [9]: 2.9×10^3 PFU/mL
- luciferase activity (vRNP activity) (vRNP activity): notable and dose-dependent reduction in luciferase activity
- vRNA expression (FISH) [10]: significant reduction in vRNA expression
- viral protein expression (western blotting) (viral protein expression): reduction in viral protein expression
- NP localization in virus-infected HeLa cells (NP): nuclear rather than cytoplasmic localization of NP
- binding of wild-type NP-Flag to RK424 beads (NP-Flag): bound to RK424 beads but not to control beads
- RNA binding, less than control samples (NP-RNA interaction): ~50%
- binding of NP-HA to NP-mRFP-Flag beads (NP-NP interaction): inhibited the binding of NP-HA to NP-mRFP-Flag beads in a dose-dependent manner
- rate of NP oligomerization [11]: dose-dependent reduction in the rate of oligomerization
- mRFP fluorescence intensity in the nucleus, % of buffer-treated cells ([12]; 2 μM): 76%
- mRFP fluorescence intensity in the nucleus, % of buffer-treated cells ([12]; 10 μM): 134%
- binding of CRM1 to NP-Flag beads (CRM1 binding to NP): binding was inhibited
- effect on viral replication when added prior to virus inoculation [13]: did not interfere with viral replication
- antiviral effect by time of addition [14]: prominent antiviral effect at an early stage in the virus life cycle
- Cmax relative to the in vitro IC50 concentration (Cmax 39200 ng/mL vs 162.7 ng/mL): more than 200 times
- bioavailability via the oral route relative to the intraperitoneal route, lower by (mice, 10 mg/kg): 50%
- free drug maximum concentration (Cfree max) (mice, intravenous 1 mg/kg, plasma): 11.4 ng/mL
- free drug maximum concentration (Cfree max) (mice, oral route 10 mg/kg): 46.4 ng/mL
- free drug maximum concentration (Cfree max) (mice, context intraperitoneal 10 mg/kg): 156.8 ng/mL
- drug free from plasma protein [15]: 0.4%
- plasma protein binding ([15]; 50 μM, 37°C 30 min): 99.6%
- Vd (in vivo): 0.583 L/kg
- Cmax (in vivo; ip): 39200 ng/mL
- CC50 (in vitro): ≥ 50000 nM

SMILES: CCC(=C/[C@H](C)C/C=C/C(C)=C/[C@@H](C)C(=O)[C@@H](C)[C@H](O)[C@@H](C)C/C(C)=C/C(=O)O)/C=C/[C@@H]1OC(=O)C=C[C@@H]1C [leptomycin B, reference compound]
- mRFP fluorescence intensity in the nucleus, % of buffer-treated cells ([12]; concentration not given): 97%
- binding of CRM1 to NP-Flag beads (CRM1 binding to NP): binding was inhibited

SMILES: CCOC(=O)C1=C[C@@H](OC(CC)CC)[C@H](NC(C)=O)[C@@H](N)C1 [oseltamivir phosphate, reference compound]
- body weight change (in words) [9]: no weight loss
- luciferase activity (vRNP activity) (vRNP activity): did not significantly inhibit luciferase activity
- NP localization in virus-infected HeLa cells (NP): NP localized in both the nucleus and cytoplasm
